Measured values published in patent US8835510B2, “Methods and compositions for treating conditions mediated by oxidative stress or electrophilic environmental toxins” (priority 2010, dated 2014).
“Also recorded” adds a separate entry of the source.

Columns and labels:
[1] = pKa and enolate ionization of enol compounds; format: physicochemical
[2] = Kinetic assay of acrolein-induced N-acetyl cysteine (NAC) sulfhydryl loss (DTNB method)
From the text: As an index of cytoprotection, these studies focused on the abilities of 1,3-dicarbonyl compounds to prevent electrophile-induced loss of protein and non-protein sulfhydryl groups. This experimental focus is based on substantial evidence that soft electrophiles, like acrolein, produce toxicity by forming Michael-type adducts with soft nucleophilic thiolate (anionic sulfhydryl) groups on functionally critical proteins^9, 17, 22, 56, 57 (reviewed in^28, 58, 62, 77, 94). […] To test this hypothesis, a determination was made of the ability of AcAc and other structurally related enol analogs to prevent sulfhydryl (nucleophile) adduction by acrolein (electrophile)^56. […] Free sulfhydryl concentrations were determined over time (up to 15 mins) by the DTNB method of LoPachin et al.^52.
Therefore, as a kinetic index of competitive thiol protection by enolate sequestration, the relative in vitro abilities of 1,3-dicarbonyl compounds and phloretin to slow the rate of acrolein-induced sulfhydryl loss were measured.

MN9D cells [3] = test: Cell viability (trypan blue) in acrolein-exposed MN9D cultures; details: pre-incubation 60 minutes, 750 μM each (phloretin 100 μM)
Method: (§1) As a more complex biological model, a determination was made of the relative abilities of the 1,3-dicarbonyls to protect MN9D cells, a dopaminergic cell line, from acrolein- (FIG. 6) or hydrogen peroxide (H2O2)-induced cell death (FIG. 7). Briefly, two days after plating, cells were incubated with AcAc (750 μM) for one hr followed by exposure to graded concentrations of either acrolein (0.50-150 μM×24 hrs) or H2O2 (50-750 μM×24 hrs). Cell viability was determined by trypan blue (0.1%) exclusion. Living cells were counted in a hemocytometer and total cells per dish were calculated.

MN9D cells [4] = test: Cell viability (trypan blue) in H2O2-exposed MN9D cultures; details: test compound 750 μM (phloretin 100 μM)
Method: as §1
(§2) This system represents a more complete model of oxidative stress since the hydroxyl radical formed from intracellular H2O2 during the Fenton reaction, subsequently mediates the generation of toxic aldehyde by-products such as acrolein and 4-hydroxy-2-nonenal (HNE).

[5] = Free radical scavenging (DPPH absorbance method of Ak and Gulcin)
Method: The relative abilities of selected 1,3-dicarbonyl compounds to scavenge free radicals were determined using the spectrophotometric method of Ak and Gulcin (2008)^4 that measures changes in the absorbance of the 2,2-diphenyl-1-picrylhydrazyl radical.

[6] = Ferrous ion chelation (method of Dairam et al.)
[7] = Cytotoxicity of test compound alone in MN9D cultures; details: mouse, MN9D cells
MN9D cells [8] = test: as above; details: 100 μM
[9] = system: control striatal synaptosomes; test: In vitro toxicity: radiolabeled dopamine (DA) membrane transport in control striatal synaptosomes; details: FIG. 4
[10] = Cell viability (trypan blue) in H2O2-exposed MN9D cultures; details: mouse, MN9D cells
Method: as §1, §2

Structure (SMILES)	pKa [1]	rate of sulfhydryl loss (mean rate±SE) ([2]; NAC + acrolein 150 μM + test compound 50 μM co-incubated, Krebs buffer pH 7.4, 30° C.) [nmol SH sec^−1]	sulfhydryl (NAC) protection, pre-incubation ([2]; acrolein pre-incubated with test compound, NAC added one hour later)	sulfhydryl (NAC) protection, co-incubation ([2]; all chemicals added simultaneously)	protection against acrolein-induced cell death (words) (MN9D cells [3])	protection against acrolein-induced cell death (words) (MN9D cells [3]; listed as Phloretin)	protection against H2O2-induced cell death (MN9D cells [4])	DPPH radical scavenging [5]	Fe^2+ chelating activity [6]	CC50 [7] [µM]	MN9D cell death / cell loss by compound alone (MN9D cells [8]) [%]	MN9D cell death / cell loss by compound alone (MN9D cells [8]; listed as Phloretin) [%]	synaptosomal toxicity of compound alone, DA transport (words, IC50 magnitude) [9]	CC50 at 24 h [10] [µM]
O=C(CCc1ccc(O)cc1)c1c(O)cc(O)cc1O [phloretin, reference compound]	7.3	−1.9±0.7	significant thiol protection	only marginally protective	did not protect	did not provide cytoprotection	potentiated H2O2 toxicity	relatively weak DPPH. scavengers	little, if any, Fe^2+ chelating activity	362	~50	42	relatively significant in vitro toxicity; also recorded: significant synaptosomal toxicity	–
OO [H2O2, hydrogen peroxide]	–	–	–	–	–	–	–	–	–	–	–	–	–	254
